From patent publication EP0499648A1, “Enzymatically debranched starches as tablet excipients” (National Starch and Chemical Investment Holding Corporation, priority 1991, dated 1992)

Assays:
[1] = Direct compression tabletting of APAP formula: compression profile (tablet hardness vs. press pressure setting); format: physicochemical; details: 64% APAP, 34.75% binder
Description: (§1) Direct compression tabletting in a laboratory scale tablet press (Stokes, Model B-2, 16 station rotary tablet press with 3/8'' standard concave punches, obtained from Stokes Co., Warminster, PA) was used to prepare tablets from the following formula: […]
All ingredients except the binder were dry blended, screened through a 10 mesh sieve and blended with the binder.
(§2) Tablets weighing from 360-460 mg were formed in the tablet press at pressure settings from A (low) to I (high) by adjusting the weight setting for each pressure setting. Compressibility is expressed as a profile obtained by increasing the pressure setting until the accompanying increases in the tablet hardness measurements leveled off. Tablet hardness was determined on a hydraulic tablet hardness tester (Delamar, Model PT 1000, obtained from VanKel Industries, Edison, New Jersey) in units of Kg/cm².

[2] = Visual observation of direct compression APAP tablets (structural integrity, capping, splitting, surface); format: physicochemical; details: direct compression APAP formula
Description: as §1, §2
The starch debranching and tabletting methods of Example 1 were employed to make direct compression tablets according to the formula of Example 1.

Tablet Hardness ([1]; machine position A (low pressure setting)): 0 Kg/cm²
Tablet Hardness ([1]; machine position B): 0 Kg/cm²
Tablet Hardness ([1]; machine position C): 0 Kg/cm²
Tablet Hardness ([1]; machine position D): 0 Kg/cm²
Tablet Hardness ([1]; machine position E): 0 Kg/cm²
Tablet Hardness ([1]; machine position F): 0 Kg/cm²
Tablet Hardness ([1]; machine position G): 0 Kg/cm²
Tablet Hardness ([1]; machine position H): 0 Kg/cm²
Tablet Hardness ([1]; machine position I (high pressure setting)): 0 Kg/cm²
compressibility and structural integrity of tablets (visual observation) [2]: a. Not compressible.
compressibility and structural integrity of tablets (visual observation) ([2]; listed as acetaminophen (APAP)): does not compress to form a tablet
SMILES: CC(=O)Nc1ccc(O)cc1 [100% APAP, Acetaminophen]
